# Reference: patent US9464076B2, “Benzothiophene derivative” (Daiichi Sankyo Company, Limited, priority 2013, dated 2016)
# pIC50: −log10 of the molar value. Counter-ions that a name gives are not always drawn.
# Key:
# PDE10A = PDE10A (Homo sapiens (Human), UniProt Q9Y233); assay: Measurement of PDE10A inhibitory activity-2 (PDE10A fraction prepared from MOLT-4 cells); assay type: biochemical; settings: PDE10A fraction from MOLT-4 cells (peak around 250 mM NaCl)
# How it was run: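 Enzyme source was a PDE10A-containing fraction from MOLT-4 cell soluble extract, resolved by HiTrap Q anion exchange with a 0–0.8 M NaCl gradient and selected by cAMP-hydrolysing activity. IC50 determined with this fraction by the same procedure as the preceding PDE10A assay.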
# Male C57BL/6 Cr mice = assay: Test on suppression of phencyclidine-induced hyperlocomotion in mice; assay type: in vivo, mouse; settings: Mus musculus, po, 1 h, locomotor activity, test compound 10 mg/kg oral, phencyclidine 5 mg/kg s.c. approx. 1 hour later, measured for 1 hour
# Protocol: Male C57BL/6 Cr mice (Japan SLC, Inc.) (8 weeks old) were used in the experiment. A test compound was suspended at 1 mg/mL in a 0.5% hydroxypropylcellulose solution to prepare a suspension for administration. The suspension of the test compound or a solvent (0.5% hydroxypropylcellulose solution) was orally administered at a dose of 10 mL/kg to each mouse. After the administration, the mouse was immediately placed in a locomotor activity measurement apparatus (Muromachi Kikai Co., Ltd., locomotor activity measurement system SUPERMEX). Approximately 1 hour later, phencyclidine (5 mg/10 mL/kg) or a solvent (10 mL/kg saline) was subcutaneously administered to the mouse. The locomotor activity was measured from immediately after the subcutaneous administration to 1 hour later.
# Percent inhibition exceeding 100 means that when the activity of the phencyclidine administration control group was defined as 100, the activity of the group given a test compound was lower than that of the solvent administration control group.
# Chain of PDE10A (Q9Y233 whole entry): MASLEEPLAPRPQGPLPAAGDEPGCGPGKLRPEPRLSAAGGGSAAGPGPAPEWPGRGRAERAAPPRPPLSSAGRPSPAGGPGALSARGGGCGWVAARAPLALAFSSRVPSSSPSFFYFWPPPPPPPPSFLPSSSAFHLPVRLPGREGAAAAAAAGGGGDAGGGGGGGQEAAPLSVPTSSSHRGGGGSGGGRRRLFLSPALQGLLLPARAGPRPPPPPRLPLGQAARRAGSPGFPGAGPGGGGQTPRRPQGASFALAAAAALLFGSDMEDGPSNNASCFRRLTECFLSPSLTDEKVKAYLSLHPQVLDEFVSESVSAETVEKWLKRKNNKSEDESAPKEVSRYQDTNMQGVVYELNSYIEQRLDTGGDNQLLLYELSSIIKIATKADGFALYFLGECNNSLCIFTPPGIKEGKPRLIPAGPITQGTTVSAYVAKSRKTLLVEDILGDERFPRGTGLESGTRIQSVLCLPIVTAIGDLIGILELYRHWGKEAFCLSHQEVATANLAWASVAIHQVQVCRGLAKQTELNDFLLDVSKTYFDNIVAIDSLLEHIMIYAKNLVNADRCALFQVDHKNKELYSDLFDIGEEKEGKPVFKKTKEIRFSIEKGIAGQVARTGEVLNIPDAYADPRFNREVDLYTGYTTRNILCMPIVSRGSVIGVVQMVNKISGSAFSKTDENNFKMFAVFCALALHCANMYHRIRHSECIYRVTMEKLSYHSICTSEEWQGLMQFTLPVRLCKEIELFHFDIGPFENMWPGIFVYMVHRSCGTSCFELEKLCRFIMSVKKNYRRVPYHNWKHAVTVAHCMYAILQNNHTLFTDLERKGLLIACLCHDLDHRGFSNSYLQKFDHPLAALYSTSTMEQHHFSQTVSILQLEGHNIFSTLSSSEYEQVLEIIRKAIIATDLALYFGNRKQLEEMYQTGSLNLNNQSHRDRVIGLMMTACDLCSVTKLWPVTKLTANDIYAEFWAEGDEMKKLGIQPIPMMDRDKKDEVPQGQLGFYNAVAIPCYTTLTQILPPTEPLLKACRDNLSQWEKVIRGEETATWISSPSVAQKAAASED
compound,measurement,setting,value
"COCc1ccc(C(C)=O)c2sc(C(=O)Nc3cc(N)c4ccccc4n3)c(C)c12 [Example 54, 7-Acetyl-N-(4-aminoquinolin-2-yl)-4-(methoxymethyl)-3-methylbenzo[b]thiophene-2-carboxamide]",pIC50,PDE10A,10.27
same,inhibition in vivo at 10 mg/kg,Male C57BL/6 Cr mice,68%
"COCc1ccc(C(C)=O)c2sc(C(=O)Nc3ccc4c(CN5CC(O)C5)cccc4n3)c(C)c12 [Example 65, 7-Acetyl-N-(5-((3-hydroxyazetidin-1-yl)methyl)quinolin-2-yl)-4-(methoxymethyl)-3-methylbenzo[b]thiophene-2-carboxamide dihydrochloride]",pIC50,PDE10A,9.41
same,inhibition in vivo at 10 mg/kg,Male C57BL/6 Cr mice,37%
"COCc1ccc(C(=O)C(C)C)c2sc(C(=O)Nc3cc(CN4CC[C@@H](O)C4)c4ccccc4n3)c(C)c12 [Example 59, (R)—N-(4-((3-Hydroxypyrrolidin-1-yl)methyl)quinolin-2-yl)-7-isobutyryl-4-(methoxymethyl)-3-methylbenzo[b]thiophene-2-carboxamide dihydrochloride]",pIC50,PDE10A,9.51
same,inhibition in vivo at 10 mg/kg,Male C57BL/6 Cr mice,67%
"[2H]C([2H])([2H])OCc1ccc(C(C)=O)c2sc(C(=O)Nc3ccc4c(C(=O)N5CC(OC)C5)cccc4n3)c(C)c12 [Example 121, 7-Acetyl-N-(5-((3-methoxyazetidin-1-yl)carbonyl)quinolin-2-yl)-4-((^2H3)methoxymethyl)-3-methylbenzo[b]thiophene-2-carboxamide]",pIC50,PDE10A,9.24
same,inhibition in vivo at 10 mg/kg,Male C57BL/6 Cr mice,59%
"COCc1ccc(C(C)=O)c2sc(C(=O)Nc3cc(CN4CCN(C)CC4)c4ccccc4n3)c(C)c12 [Example 125, 7-Acetyl-4-(methoxymethyl)-3-methyl-N-(4-((4-methylpiperazin-1-yl)methyl)quinolin-2-yl)benzo[b]thiophene-2-carboxamide]",pIC50,PDE10A,9.10
same,inhibition in vivo at 10 mg/kg,Male C57BL/6 Cr mice,86%
"COCc1ccc(C(C)=O)c2sc(C(=O)Nc3ccc4c(CN5CC[C@H](O)C5)cccc4n3)c(C)c12 [Example 63, (S)-7-Acetyl-N-(5-((3-hydroxypyrrolidin-1-yl)methyl)quinolin-2-yl)-4-(methoxymethyl)-3-methylbenzo[b]thiophene-2-carboxamide dihydrochloride]",pIC50,PDE10A,8.96
same,inhibition in vivo at 10 mg/kg,Male C57BL/6 Cr mice,84%
"[2H]C([2H])(OC)c1ccc(C(C)=O)c2sc(C(=O)Nc3cc(C([2H])([2H])N4CC[C@@H](O)C4)c4ccccc4n3)c(C)c12 [Example 116, (R)-7-Acetyl-N-(4-((3-hydroxypyrrolidin-1-yl)(^2H2)methyl)quinolin-2-yl)-4-(methoxy(^2H2)methyl)-3-methylbenzo[b]thiophene-2-carboxamide]",pIC50,PDE10A,9.82
same,inhibition in vivo at 10 mg/kg,Male C57BL/6 Cr mice,180%
"[2H]C([2H])([2H])OCc1ccc(C(C)=O)c2sc(C(=O)Nc3ccc4c(COC)cccc4n3)c(C)c12 [Example 118, 7-Acetyl-4-((^2H3)methoxymethyl)-N-(5-(methoxymethyl)quinolin-2-yl)-3-methylbenzo[b]thiophene-2-carboxamide]",pIC50,PDE10A,9.12
same,inhibition in vivo at 10 mg/kg,Male C57BL/6 Cr mice,77%
"COCc1ccc(C(C)=O)c2sc(C(=O)Nc3ccc4c(COCCO)cccc4n3)c(C)c12 [Example 72, 7-Acetyl-N-(5-((2-hydroxyethoxy)methyl)quinolin-2-yl)-4-(methoxymethyl)-3-methylbenzo[b]thiophene-2-carboxamide hydrochloride]",pIC50,PDE10A,9.27
same,inhibition in vivo at 10 mg/kg,Male C57BL/6 Cr mice,83%
"COCc1ccc(C(C)=O)c2sc(C(=O)Nc3ccc4c(COC(=O)[C@@H](N)C(C)C)cccc4n3)c(C)c12 [Example 84, (S)-(2-(7-Acetyl-4-(methoxymethyl)-3-methylbenzo[b]thiophene-2-carboxamido)quinolin-5-yl)methyl-2-amino-3-methylbutanoate]",pIC50,PDE10A,8.15
same,inhibition in vivo at 10 mg/kg,Male C57BL/6 Cr mice,92%
"CCc1c(C(=O)Nc2cc(CN3CC[C@@H](O)C3)c3ccccc3n2)sc2c(C(C)=O)ccc(COC)c12 [Example 42, (R)-7-Acetyl-3-ethyl-N-(4-((3-hydroxypyrrolidin-1-yl)methyl)quinolin-2-yl)-4-(methoxymethyl)benzo[b]thiophene-2-carboxamide]",pIC50,PDE10A,9.04
same,inhibition in vivo at 10 mg/kg,Male C57BL/6 Cr mice,85%
"COCc1ccc(C(C)=O)c2sc(C(=O)Nc3cc(C(C)(C)O)c4ccccc4n3)c(C)c12 [Example 26, 7-Acetyl-N-(4-(2-hydroxypropan-2-yl)quinolin-2-yl)-4-(methoxymethyl)-3-methylbenzo[b]thiophene-2-carboxamide]",pIC50,PDE10A,8.74
same,inhibition in vivo at 10 mg/kg,Male C57BL/6 Cr mice,84%
"COCc1ccc(C(C)=O)c2sc(C(=O)Nc3ccc4c(C(C)O)cccc4n3)c(C)c12 (stereo not shown) [Example 76, 7-Acetyl-N-(5-(1-hydroxyethyl)quinolin-2-yl)-4-(methoxymethyl)-3-methylbenzo[b]thiophene-2-carboxamide]",pIC50,PDE10A,9.28
same,inhibition in vivo at 10 mg/kg,Male C57BL/6 Cr mice,102%
"COCc1ccc(C(C)=O)c2sc(C(=O)Nc3ccc4c(COC(=O)[C@H](C)N)cccc4n3)c(C)c12 [Example 86, (S)-(2-(7-Acetyl-4-(methoxymethyl)-3-methylbenzo[b]thiophene-2-carboxamido)quinolin-5-yl)methyl-2-aminopropanoate]",pIC50,PDE10A,8.96
same,inhibition in vivo at 10 mg/kg,Male C57BL/6 Cr mice,88%
"COCc1ccc(C(C)=O)c2sc(C(=O)Nc3cc(CN4CCC(O)CC4)c4ccccc4n3)c(C)c12 [Example 36, 7-Acetyl-N-(4-((4-hydroxypiperidin-1-yl)methyl)quinolin-2-yl)-4-(methoxymethyl)-3-methylbenzo[b]thiophene-2-carboxamide]",pIC50,PDE10A,9.46
same,inhibition in vivo at 10 mg/kg,Male C57BL/6 Cr mice,69%
"COCCOCc1cccc2nc(NC(=O)c3sc4c(C(C)=O)ccc(COC)c4c3C)ccc12 [Example 71, 7-Acetyl-N-(5-((2-methoxyethoxy)methyl)quinolin-2-yl)-4-(methoxymethyl)-3-methylbenzo[b]thiophene-2-carboxamide hydrochloride]",pIC50,PDE10A,9.12
same,inhibition in vivo at 10 mg/kg,Male C57BL/6 Cr mice,89%
"COCc1ccc(C(C)=O)c2sc(C(=O)Nc3ccc4c(C(=O)N5CC(O)C5)cccc4n3)c(C)c12 [Example 101, 7-Acetyl-N-(5-((3-hydroxyazetidin-1-yl)carbonyl)quinolin-2-yl)-4-(methoxymethyl)-3-methylbenzo[b]thiophene-2-carboxamide]",pIC50,PDE10A,9.96
same,inhibition in vivo at 10 mg/kg,Male C57BL/6 Cr mice,35%
"COCc1ccc(C(C)=O)c2sc(C(=O)Nc3cc(CN4CC(O)C4)c4ccccc4n3)c(C)c12 [Example 47, 7-Acetyl-N-(4-((3-hydroxyazetidin-1-yl)methyl)quinolin-2-yl)-4-(methoxymethyl)-3-methylbenzo[b]thiophene-2-carboxamide dihydrochloride]",pIC50,PDE10A,9.31
same,inhibition in vivo at 10 mg/kg,Male C57BL/6 Cr mice,73%
"COCc1ccc(C(C)=O)c2sc(C(=O)Nc3ccc4c(CN5CC(OC)C5)cccc4n3)c(C)c12 [Example 66, 7-Acetyl-N-(5-((3-methoxyazetidin-1-yl)methyl)quinolin-2-yl)-4-(methoxymethyl)-3-methylbenzo[b]thiophene-2-carboxamide]",pIC50,PDE10A,8.92
same,inhibition in vivo at 10 mg/kg,Male C57BL/6 Cr mice,91%
"COCc1ccc(C(C)=O)c2sc(C(=O)Nc3cc(CN4CC[C@@H](F)C4)c4ccccc4n3)c(C)c12 [Example 45, (R)-7-Acetyl-N-(4-((3-fluoropyrrolidin-1-yl)methyl)quinolin-2-yl)-4-(methoxymethyl)-3-methylbenzo[b]thiophene-2-carboxamide]",pIC50,PDE10A,9.30
same,inhibition in vivo at 10 mg/kg,Male C57BL/6 Cr mice,97%
